Laboratory results published in ChEMBL document CHEMBL1201862, “PubChem BioAssay data set” (2004).
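Values below derive from 48-hour exposures of cells grown in 96-well plates, with endpoints linearly interpolated between the two concentrations bracketing the appropriate inhibition level. Abbreviation: GI50, concentration required for 50% inhibition of growth.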 The source made the active and inactive calls. Cut-off read from the data, not from the text of the source: active = GI50 up to about 1.1 µM and inactive = higher.

How the values were obtained:
Assay in all cases: inhibition of tumour cell growth, NCI panel, 48 h
OVCAR-8 = tested on: OVCAR-8
SK-MEL-28 = tested on: SK-MEL-28
MDA-N = tested on: MDA-N
SNB-19 = tested on: SNB-19
NCI-H226 = tested on: NCI-H226
K562 = tested on: K562
COLO 205 = tested on: COLO 205
LOX IMVI = tested on: LOX IMVI
A498 = tested on: A498
HOP-92 = tested on: HOP-92
NCI-H23 = tested on: NCI-H23
OVCAR-5 = tested on: OVCAR-5
U-251 = tested on: U-251
CCRF-CEM = tested on: CCRF-CEM
A549 = tested on: A549
SF-268 = tested on: SF-268
NCI-H460 = tested on: NCI-H460
OVCAR-3 = tested on: OVCAR-3
SW-620 = tested on: SW-620
SF-295 = tested on: SF-295
MCF7 = tested on: MCF7
SN12C = tested on: SN12C
SF-539 = tested on: SF-539
SK-MEL-5 = tested on: SK-MEL-5
RPMI-8226 = tested on: RPMI-8226
BT-549 = tested on: BT-549
EKVX = tested on: EKVX
RXF 393 = tested on: RXF 393
TK-10 = tested on: TK-10
UACC-257 = tested on: UACC-257
IGROV-1 = tested on: IGROV-1
CAKI-1 = tested on: CAKI-1
T47D = tested on: T47D
UO-31 = tested on: UO-31
SK-OV-3 = tested on: SK-OV-3
ACHN = tested on: ACHN
786-0 = tested on: 786-0
PC-3 = tested on: PC-3
MOLT-4 = tested on: MOLT-4
OVCAR-4 = tested on: OVCAR-4
HL-60 = tested on: HL-60
HCT-15 = tested on: HCT-15
Hs-578T = tested on: Hs-578T
SK-MEL-2 = tested on: SK-MEL-2
MDA-MB-231 = tested on: MDA-MB-231
NCI-H522 = tested on: NCI-H522
NCI/ADR-RES = tested on: NCI/ADR-RES
M14 = tested on: M14
HT-29 = tested on: HT-29
UACC-62 = tested on: UACC-62
Malme-3M = tested on: Malme-3M
DU-145 = tested on: DU-145
HCT-116 = tested on: HCT-116
KM12 = tested on: KM12
MDA-MB-435 = tested on: MDA-MB-435
SR = tested on: SR
SNB-75 = tested on: SNB-75
HOP-62 = tested on: HOP-62
HCC 2998 = tested on: HCC 2998

**Q.** For `O=C(O)CCNc1ccccc1C(=O)O`, which GI50 (OVCAR-8) is on record?
**A.** The GI50 was > 100 µM (inactive).

**Q.** What about the GI50 (SK-MEL-28) of the same compound?
**A.** Its GI50 is > 100 µM (inactive).

**Q.** What about the GI50 (MDA-N) of the same compound?
**A.** The GI50 was > 100 µM (inactive).

**Q.** And the GI50 (SNB-19)?
**A.** The GI50 was > 100 µM (inactive).

**Q.** And the GI50 (NCI-H226)?
**A.** Its GI50 is > 100 µM (inactive).

**Q.** What about the GI50 (K562) of the same compound?
**A.** The GI50 was > 100 µM (inactive).

**Q.** What about the GI50 (COLO 205) of the same compound?
**A.** Its GI50 is > 100 µM (inactive).

**Q.** And the GI50 (LOX IMVI)?
**A.** The GI50 was > 100 µM (inactive).

**Q.** And the GI50 (A498)?
**A.** Its GI50 is > 100 µM (inactive).

**Q.** And the GI50 (HOP-92)?
**A.** Its GI50 is > 100 µM (inactive).

**Q.** And the GI50 (NCI-H23)?
**A.** The GI50 was > 100 µM (inactive).

**Q.** What about the GI50 (OVCAR-5) of the same compound?
**A.** The GI50 was > 100 µM (inactive).

**Q.** What about the GI50 (U-251) of the same compound?
**A.** The GI50 was > 100 µM (inactive).

**Q.** What about the GI50 (CCRF-CEM) of the same compound?
**A.** The GI50 was > 100 µM (inactive).

**Q.** And the GI50 (A549)?
**A.** The GI50 was > 100 µM (inactive).

**Q.** What about the GI50 (SF-268) of the same compound?
**A.** The GI50 was > 100 µM (inactive).

**Q.** What about the GI50 (NCI-H460) of the same compound?
**A.** The GI50 was > 100 µM (inactive).

**Q.** And the GI50 (OVCAR-3)?
**A.** The GI50 was > 100 µM (inactive).

**Q.** What about the GI50 (SW-620) of the same compound?
**A.** Its GI50 is > 100 µM (inactive).

**Q.** What about the GI50 (SF-295) of the same compound?
**A.** Its GI50 is > 100 µM (inactive).

**Q.** And the GI50 (MCF7)?
**A.** Its GI50 is > 100 µM (inactive).

**Q.** And the GI50 (SN12C)?
**A.** Its GI50 is > 100 µM (inactive).

**Q.** What about the GI50 (SF-539) of the same compound?
**A.** Its GI50 is > 100 µM (inactive).

**Q.** What about the GI50 (SK-MEL-5) of the same compound?
**A.** Its GI50 is > 100 µM (inactive).

**Q.** What about the GI50 (RPMI-8226) of the same compound?
**A.** Its GI50 is > 100 µM (inactive).

**Q.** And the GI50 (BT-549)?
**A.** The GI50 was > 100 µM (inactive).

**Q.** What about the GI50 (EKVX) of the same compound?
**A.** Its GI50 is 99.1 µM (inactive).

**Q.** And the GI50 (RXF 393)?
**A.** Its GI50 is > 100 µM (inactive).

**Q.** And the GI50 (TK-10)?
**A.** Its GI50 is > 100 µM (inactive).

**Q.** And the GI50 (UACC-257)?
**A.** The GI50 was > 100 µM (inactive).

**Q.** What about the GI50 (IGROV-1) of the same compound?
**A.** The GI50 was > 100 µM (inactive).

**Q.** What about the GI50 (CAKI-1) of the same compound?
**A.** Its GI50 is > 100 µM (inactive).

**Q.** What about the GI50 (T47D) of the same compound?
**A.** The GI50 was > 100 µM (inactive).

**Q.** And the GI50 (UO-31)?
**A.** The GI50 was > 100 µM (inactive).

**Q.** What about the GI50 (SK-OV-3) of the same compound?
**A.** The GI50 was > 100 µM (inactive).

**Q.** What about the GI50 (ACHN) of the same compound?
**A.** The GI50 was > 100 µM (inactive).

**Q.** And the GI50 (786-0)?
**A.** The GI50 was > 100 µM (inactive).

**Q.** And the GI50 (PC-3)?
**A.** The GI50 was > 100 µM (inactive).

**Q.** What about the GI50 (MOLT-4) of the same compound?
**A.** Its GI50 is > 100 µM (inactive).

**Q.** And the GI50 (OVCAR-4)?
**A.** Its GI50 is > 100 µM (inactive).

**Q.** What about the GI50 (HL-60) of the same compound?
**A.** The GI50 was > 100 µM (inactive).

**Q.** And the GI50 (HCT-15)?
**A.** The GI50 was over 100 µM.

**Q.** And the GI50 (Hs-578T)?
**A.** Its GI50 is > 100 µM (inactive).

**Q.** And the GI50 (SK-MEL-2)?
**A.** Its GI50 is > 100 µM (inactive).

**Q.** And the GI50 (MDA-MB-231)?
**A.** Its GI50 is > 100 µM (inactive).

**Q.** What about the GI50 (NCI-H522) of the same compound?
**A.** The GI50 was > 100 µM (inactive).

**Q.** What about the GI50 (NCI/ADR-RES) of the same compound?
**A.** The GI50 was > 100 µM (inactive).

**Q.** What about the GI50 (M14) of the same compound?
**A.** Its GI50 is > 100 µM (inactive).

**Q.** And the GI50 (HT-29)?
**A.** The GI50 was > 100 µM (inactive).

**Q.** And the GI50 (UACC-62)?
**A.** Its GI50 is > 100 µM (inactive).

**Q.** And the GI50 (Malme-3M)?
**A.** The GI50 was > 100 µM (inactive).

**Q.** And the GI50 (DU-145)?
**A.** Its GI50 is > 100 µM (inactive).

**Q.** And the GI50 (HCT-116)?
**A.** Its GI50 is > 100 µM (inactive).

**Q.** And the GI50 (KM12)?
**A.** Its GI50 is > 100 µM (inactive).

**Q.** What about the GI50 (MDA-MB-435) of the same compound?
**A.** The GI50 was > 100 µM (inactive).

**Q.** And the GI50 (SR)?
**A.** The GI50 was > 100 µM (inactive).

**Q.** And the GI50 (SNB-75)?
**A.** The GI50 was > 100 µM (inactive).

**Q.** What about the GI50 (HOP-62) of the same compound?
**A.** Its GI50 is > 100 µM (inactive).

**Q.** What does the source list for `CC(C)Oc1cccc(N2C(Nc3ccccc3)=Nc3ccncc3S2(=O)=O)c1`?
**A.** GI50 (OVCAR-8): 18.2 µM (inactive); GI50 (SK-MEL-28): 0.32 µM (active); GI50 (MDA-N): 23.1 µM (inactive); GI50 (SNB-19): 34.8 µM (inactive); GI50 (NCI-H226): 24.1 µM (inactive); GI50 (K562): 76 µM (inactive); GI50 (COLO 205): 13.1 µM (inactive); GI50 (LOX IMVI): 17.7 µM (inactive); GI50 (A498): 25.7 µM (inactive); GI50 (HOP-92): 16.2 µM (inactive); GI50 (NCI-H23): 32.9 µM (inactive); GI50 (OVCAR-5): 48.1 µM (inactive); GI50 (U-251): 7.67 µM (inactive); GI50 (CCRF-CEM): 7.55 µM (inactive); GI50 (A549): 20.4 µM (inactive); GI50 (SF-268): 38.9 µM (inactive); GI50 (NCI-H460): 13.3 µM (inactive); GI50 (OVCAR-3): 18.4 µM (inactive); GI50 (SW-620): 17.3 µM (inactive); GI50 (SF-295): 23.1 µM (inactive); GI50 (MCF7): 17.6 µM (inactive); GI50 (SN12C): 30.8 µM (inactive); GI50 (SF-539): 23.8 µM (inactive); GI50 (SK-MEL-5): 4.12 µM (inactive); GI50 (BT-549): 22.4 µM (inactive); GI50 (EKVX): 40.5 µM (inactive); GI50 (RXF 393): 21.9 µM (inactive); GI50 (UACC-257): 17.4 µM (inactive); GI50 (HCC 2998): 1.69 µM (inactive); GI50 (IGROV-1): 25.4 µM (inactive); GI50 (CAKI-1): 26 µM (inactive); GI50 (T47D): 13.8 µM (inactive); GI50 (UO-31): 19.1 µM (inactive); GI50 (SK-OV-3): 44 µM (inactive); GI50 (ACHN): 26.5 µM (inactive); GI50 (786-0): 17.7 µM (inactive); GI50 (PC-3): 6.12 µM (inactive); GI50 (MOLT-4): > 100 µM (inactive); GI50 (OVCAR-4): 15.6 µM (inactive); GI50 (HL-60): 0.41 µM (active); GI50 (HCT-15): 20.2 µM; GI50 (Hs-578T): 39.7 µM (inactive); GI50 (SK-MEL-2): 7.01 µM (inactive); GI50 (MDA-MB-231): 15.2 µM (inactive); GI50 (NCI-H522): 30.6 µM (inactive); GI50 (NCI/ADR-RES): 19.3 µM (inactive); GI50 (M14): 25.3 µM (inactive); GI50 (HT-29): 12.2 µM (inactive); GI50 (UACC-62): 19.9 µM (inactive); GI50 (Malme-3M): 23.2 µM (inactive); GI50 (DU-145): 42.4 µM (inactive); GI50 (HCT-116): 20.4 µM (inactive); GI50 (KM12): 20.7 µM (inactive); GI50 (MDA-MB-435): 11.8 µM (inactive); GI50 (SR): 10.9 µM (inactive); GI50 (SNB-75): > 100 µM (inactive); GI50 (HOP-62): 32.7 µM (inactive)
